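Tested at 5 concentrations; 48 h exposure; 96-well plates; endpoints linearly interpolated, else capped at highest concentration. GI50: concentration for 50% inhibition of growth. The concentration for full growth arrest is given as TGI.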
Assays:
Assay in all cases: NCI anticancer screen, dose series, 48 h
SF-539 CNS = system: SF-539 CNS
NCI-H522 lung = system: NCI-H522 lung
MDA-MB-435 = system: MDA-MB-435
COLO 205 colon = system: COLO 205 colon
NCI-H226 lung = system: NCI-H226 lung
BT-549 breast = system: BT-549 breast
SK-MEL-28 melanoma = system: SK-MEL-28 melanoma
TK-10 renal = system: TK-10 renal
KM12 colon = system: KM12 colon
T-47D breast = system: T-47D breast
ACHN renal = system: ACHN renal
MDA-MB-231 breast = system: MDA-MB-231 breast
HL-60(TB) leukemia = system: HL-60(TB) leukemia
UACC-62 melanoma = system: UACC-62 melanoma
CCRF-CEM leukemia = system: CCRF-CEM leukemia
786-0 renal = system: 786-0 renal
NCI-H23 lung = system: NCI-H23 lung
RXF 393 renal = system: RXF 393 renal
A549 NSCLC = system: A549 NSCLC
UACC-257 melanoma = system: UACC-257 melanoma
NCI/ADR-RES ovarian = system: NCI/ADR-RES ovarian
U251 CNS = system: U251 CNS
HCT-15 colon = system: HCT-15 colon
PC-3 prostate = system: PC-3 prostate
OVCAR-4 ovarian = system: OVCAR-4 ovarian
SNB-19 CNS = system: SNB-19 CNS
RPMI-8226 leukemia = system: RPMI-8226 leukemia
IGROV1 ovarian = system: IGROV1 ovarian
OVCAR-8 ovarian = system: OVCAR-8 ovarian
SW-620 colon = system: SW-620 colon

C=C1C(=O)c2sccc2C(c2ccc(OC)c(OC)c2)C1COC(C)=O (centres undefined)
TGI (SF-539 CNS): 3.27 µM
GI50 (NCI-H522 lung): 1.13 µM
TGI (NCI-H522 lung): 4.04 µM
GI50 (MDA-MB-435): 1.92 µM
TGI (MDA-MB-435): 6.18 µM
GI50 (COLO 205 colon): 2.25 µM
TGI (COLO 205 colon): 4.89 µM
GI50 (NCI-H226 lung): 2.93 µM
TGI (NCI-H226 lung): 8.56 µM
GI50 (BT-549 breast): 2.11 µM
TGI (BT-549 breast): 4.79 µM
GI50 (SK-MEL-28 melanoma): 2.15 µM
TGI (SK-MEL-28 melanoma): 4.42 µM
GI50 (TK-10 renal): 1.34 µM
TGI (TK-10 renal): 4.85 µM
GI50 (KM12 colon): 1.21 µM
TGI (KM12 colon): > 25.7 µM
GI50 (T-47D breast): 2.24 µM
TGI (T-47D breast): 5.77 µM
GI50 (ACHN renal): 1.86 µM
GI50 (MDA-MB-231 breast): 0.551 µM
TGI (MDA-MB-231 breast): 2.48 µM
GI50 (HL-60(TB) leukemia): 2.98 µM
TGI (HL-60(TB) leukemia): > 100 µM
GI50 (UACC-62 melanoma): 1.43 µM
TGI (UACC-62 melanoma): 3.17 µM
GI50 (CCRF-CEM leukemia): 0.0661 µM
TGI (CCRF-CEM leukemia): 0.777 µM
GI50 (786-0 renal): 0.297 µM
TGI (786-0 renal): 3.99 µM
GI50 (NCI-H23 lung): 1.54 µM
TGI (NCI-H23 lung): 4.94 µM
GI50 (RXF 393 renal): 0.595 µM
TGI (RXF 393 renal): 1.99 µM
GI50 (A549 NSCLC): 3.25 µM
TGI (A549 NSCLC): 11.5 µM
GI50 (UACC-257 melanoma): 1.93 µM
TGI (UACC-257 melanoma): 5.77 µM
GI50 (NCI/ADR-RES ovarian): 2.36 µM
GI50 (U251 CNS): 1.62 µM
GI50 (HCT-15 colon): 2.03 µM
GI50 (PC-3 prostate): 1.3 µM
TGI (PC-3 prostate): 2.81 µM
GI50 (OVCAR-4 ovarian): 4.81 µM
TGI (OVCAR-4 ovarian): 19.5 µM
GI50 (SNB-19 CNS): 8.47 µM
TGI (SNB-19 CNS): 32.7 µM
TGI (RPMI-8226 leukemia): 0.0366 µM
GI50 (IGROV1 ovarian): 2.27 µM
TGI (IGROV1 ovarian): 5.67 µM
GI50 (OVCAR-8 ovarian): 2.74 µM
TGI (OVCAR-8 ovarian): 8.14 µM
GI50 (SW-620 colon): 0.656 µM
TGI (SW-620 colon): 2.51 µM
